Source: patent US20130225578A1, “7-CYCLYLQUINAZOLINE DERIVATIVES AND METHODS OF USE THEREOF” (AMBIT BIOSCIENCES CORPORATION, priority 2010, published 2013)

Tests used:
[1] = test system: GM-CSFR/JAK2/STAT5 pathway; experiment: CSTF-1 cell-based reporter assay (beta-lactamase reporter, GM-CSF stimulated); settings: Homo sapiens; csTF-1 cells, GM-CSF 2 ng/mL, 4 hours; read-out: Cell Assay: CS TF-1 reporter assay IC50
Method: CSTF-1 cells are derived from the human erythroleukemia cell line that is growth dependent on GM-CSF and has an intact GM-CSFR/JAK2/STAT5 pathway. The cell line contains stably integrated beta-lactamase reporter gene under the control of the […] (irf 1) response element recognized by the activated transcription factor STAT5. csTF-1 cells (Invitrogen K1219) were washed with assay media (97% OPTIMEM/0.5% dialyzed FBS/0.1 mM NEAA/1 mM Na pyr/P/S) and seeded in the same media at 5×10^5 cell/mL in T150 flask. After 16 hour incubation, cells were seeded at 2×10^5 cell/well in 50 jtl volume, into Costar, clear bottom, 96-well assay plates. Serial dilutions of compounds were added to the plates with final DMSO concentration at 0.5% and GM-CSF at 2 ng/mL and the plates were then incubated at 30° C. and 5% CO2 for 4 hours. The plates were brought to room temperature before adding Substrate Mixture according to manufacturer's protocol (Invitrogen, Catalog #K1085). The assay plates containing the substrate mixture were incubated in the dark at room temperature for 2 hours. Blue and green fluorescence was measured with excitation at 409 nm and emission at 460 nm (for blue) and excitation at 409 nm and emission at 530 nm (for green) using Spectra Max Gemini EM.

[2] = target: T1, JAK2 (Homo sapiens, UniProt O60674); experiment: Competition binding assay, JAK2
T1 construct: made in house; host or cells: T7 phage display or HEK-293 cells (alternatives)
Method: (§1) Competition binding assays used herein were developed, validated and performed as described in Fabian et al., Nature Biotechnology 2005, 23, 329-336. Kinases were produced as fusions to T7 phage (See, Fabian et al. or WO04/015142) or alternatively, the kinases were expressed in HEK-293 cells and subsequently tagged with DNA for PCR detection (See, WO08/005,310). For the binding assays, streptavidin-coated magnetic beads were treated with biotinylated affinity ligands for […] at rt to generate affinity resins. The liganded beads were blocked with excess biotin and washed with blocking buffer (SeaBlock (Pierce), 1% BSA, 0.05% Tween 20, 1 mM DTT) to remove unbound ligand and to reduce non-specific binding. Binding reactions were assembled by combining kinase, liganded affinity beads, and test compounds in 1× binding buffer (20% SeaBlock, 0.17×PBS, 0.05% Tween 20, 6 mM DTT). Test compounds were prepared as 100× stocks in DMSO and rapidly diluted into the aqueous environment. DMSO was added to control assays lacking a test compound. Primary screen interactions were performed in polypropylene 384-well plates in a final volume of 34 μL, while Kd determinations were performed in polystyrene 96-well plates in a final volume of 135 μL. The assay plates were incubated at room temperature with shaking for 1 hour, long enough for binding reactions to reach equilibrium, and the affinity beads were washed extensively with wash buffer (1×PBS, 0.05% Tween 20) to remove unbound protein. The beads were then resuspended in elution buffer (1×PBS, 0.05% Tween 20, 2 μM non-biotinylated affinity ligand) and incubated at room temperature with shaking for 30 min. The kinase concentration in the eluates was measured by quantitative PCR. Each kinase was tested individually against each compound. Kds were determined using eleven serial threefold dilutions. A selectivity score, which is a quantitative measure of selectivity of a compound against a panel of enzymes, may be calculated for a compound by dividing the number of enzymes for which a compound meets a set criteria, (for example, a binding constant of 100 nM or less), by the total number of enzymes tested.

[3] = target: T2, JAK3 (Homo sapiens, UniProt P52333); experiment: Competition binding assay, JAK3
T2 construct: made in house; host or cells: T7 phage display or HEK-293 cells (alternatives)
T2 sequence (P52333 1-1124): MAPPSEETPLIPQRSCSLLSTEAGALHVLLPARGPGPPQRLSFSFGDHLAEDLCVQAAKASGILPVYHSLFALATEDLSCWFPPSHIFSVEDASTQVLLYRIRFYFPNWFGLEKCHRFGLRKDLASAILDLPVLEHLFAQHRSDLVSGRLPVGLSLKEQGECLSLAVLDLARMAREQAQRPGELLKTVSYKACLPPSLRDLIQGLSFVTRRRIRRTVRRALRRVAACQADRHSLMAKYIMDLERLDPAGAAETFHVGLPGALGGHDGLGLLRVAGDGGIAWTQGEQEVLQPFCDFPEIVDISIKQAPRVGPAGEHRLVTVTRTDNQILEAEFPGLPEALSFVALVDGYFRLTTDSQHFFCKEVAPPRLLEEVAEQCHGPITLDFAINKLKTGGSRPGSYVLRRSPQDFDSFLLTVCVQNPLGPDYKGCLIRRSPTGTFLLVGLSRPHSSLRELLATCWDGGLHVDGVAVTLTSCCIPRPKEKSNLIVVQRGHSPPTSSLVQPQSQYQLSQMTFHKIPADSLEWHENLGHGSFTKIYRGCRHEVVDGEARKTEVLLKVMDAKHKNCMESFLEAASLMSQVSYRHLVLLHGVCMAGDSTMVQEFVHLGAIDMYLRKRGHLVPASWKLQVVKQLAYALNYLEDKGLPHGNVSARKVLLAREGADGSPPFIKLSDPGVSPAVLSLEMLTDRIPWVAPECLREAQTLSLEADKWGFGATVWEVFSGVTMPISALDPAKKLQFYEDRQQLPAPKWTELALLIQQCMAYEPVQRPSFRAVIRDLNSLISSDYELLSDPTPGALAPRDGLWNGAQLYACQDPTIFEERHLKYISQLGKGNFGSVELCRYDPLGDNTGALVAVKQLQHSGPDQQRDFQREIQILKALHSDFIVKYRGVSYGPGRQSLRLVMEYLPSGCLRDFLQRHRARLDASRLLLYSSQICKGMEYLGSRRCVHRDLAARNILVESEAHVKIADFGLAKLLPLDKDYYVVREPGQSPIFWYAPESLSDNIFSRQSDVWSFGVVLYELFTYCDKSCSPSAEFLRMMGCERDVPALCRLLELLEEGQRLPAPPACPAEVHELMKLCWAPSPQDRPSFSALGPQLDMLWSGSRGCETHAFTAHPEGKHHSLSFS
Method: as §1

[4] = target: T3, TYK2 (Homo sapiens, UniProt P29597); experiment: Competition binding assay, TYK2
T3 construct: made in house; host or cells: T7 phage display or HEK-293 cells (alternatives)
Method: as §1

[5] = test system: distinct kinases tested excluding mutant variants, typically 359 or 386 kinases; experiment: Kinase panel competition binding, selectivity score; settings: compound at 10 μM; fraction of kinases with inhibition of 90% or greater
Method: as §1

T3 sequence (P29597 whole entry): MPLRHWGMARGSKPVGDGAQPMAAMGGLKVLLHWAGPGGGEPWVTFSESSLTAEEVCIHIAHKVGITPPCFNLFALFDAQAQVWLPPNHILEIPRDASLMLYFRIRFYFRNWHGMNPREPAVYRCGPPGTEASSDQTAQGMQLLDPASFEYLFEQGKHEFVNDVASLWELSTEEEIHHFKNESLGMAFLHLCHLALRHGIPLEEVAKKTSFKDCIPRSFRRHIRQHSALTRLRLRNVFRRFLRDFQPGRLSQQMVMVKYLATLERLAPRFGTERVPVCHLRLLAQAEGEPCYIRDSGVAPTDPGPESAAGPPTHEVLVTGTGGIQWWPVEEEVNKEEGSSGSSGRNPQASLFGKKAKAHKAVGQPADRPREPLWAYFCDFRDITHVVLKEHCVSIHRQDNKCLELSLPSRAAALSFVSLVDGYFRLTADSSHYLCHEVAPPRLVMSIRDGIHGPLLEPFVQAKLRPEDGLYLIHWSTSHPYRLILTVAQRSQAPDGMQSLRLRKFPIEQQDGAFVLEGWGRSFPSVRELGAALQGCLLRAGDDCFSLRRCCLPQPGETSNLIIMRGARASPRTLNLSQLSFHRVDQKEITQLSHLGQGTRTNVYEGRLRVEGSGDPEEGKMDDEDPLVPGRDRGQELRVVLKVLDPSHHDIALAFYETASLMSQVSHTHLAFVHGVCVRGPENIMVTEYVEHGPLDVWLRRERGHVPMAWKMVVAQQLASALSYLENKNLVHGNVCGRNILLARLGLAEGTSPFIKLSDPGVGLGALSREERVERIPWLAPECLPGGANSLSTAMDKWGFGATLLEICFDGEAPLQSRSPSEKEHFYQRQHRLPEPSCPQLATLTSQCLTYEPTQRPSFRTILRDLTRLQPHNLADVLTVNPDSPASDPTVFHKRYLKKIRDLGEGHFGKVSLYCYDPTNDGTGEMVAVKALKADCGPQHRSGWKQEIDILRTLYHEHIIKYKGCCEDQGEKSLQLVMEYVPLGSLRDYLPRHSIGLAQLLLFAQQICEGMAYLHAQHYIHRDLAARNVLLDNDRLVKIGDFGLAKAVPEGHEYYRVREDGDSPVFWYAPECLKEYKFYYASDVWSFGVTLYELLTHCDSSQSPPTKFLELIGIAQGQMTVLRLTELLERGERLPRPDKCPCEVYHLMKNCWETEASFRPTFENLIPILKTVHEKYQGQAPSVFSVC
T1 sequence (O60674 whole entry): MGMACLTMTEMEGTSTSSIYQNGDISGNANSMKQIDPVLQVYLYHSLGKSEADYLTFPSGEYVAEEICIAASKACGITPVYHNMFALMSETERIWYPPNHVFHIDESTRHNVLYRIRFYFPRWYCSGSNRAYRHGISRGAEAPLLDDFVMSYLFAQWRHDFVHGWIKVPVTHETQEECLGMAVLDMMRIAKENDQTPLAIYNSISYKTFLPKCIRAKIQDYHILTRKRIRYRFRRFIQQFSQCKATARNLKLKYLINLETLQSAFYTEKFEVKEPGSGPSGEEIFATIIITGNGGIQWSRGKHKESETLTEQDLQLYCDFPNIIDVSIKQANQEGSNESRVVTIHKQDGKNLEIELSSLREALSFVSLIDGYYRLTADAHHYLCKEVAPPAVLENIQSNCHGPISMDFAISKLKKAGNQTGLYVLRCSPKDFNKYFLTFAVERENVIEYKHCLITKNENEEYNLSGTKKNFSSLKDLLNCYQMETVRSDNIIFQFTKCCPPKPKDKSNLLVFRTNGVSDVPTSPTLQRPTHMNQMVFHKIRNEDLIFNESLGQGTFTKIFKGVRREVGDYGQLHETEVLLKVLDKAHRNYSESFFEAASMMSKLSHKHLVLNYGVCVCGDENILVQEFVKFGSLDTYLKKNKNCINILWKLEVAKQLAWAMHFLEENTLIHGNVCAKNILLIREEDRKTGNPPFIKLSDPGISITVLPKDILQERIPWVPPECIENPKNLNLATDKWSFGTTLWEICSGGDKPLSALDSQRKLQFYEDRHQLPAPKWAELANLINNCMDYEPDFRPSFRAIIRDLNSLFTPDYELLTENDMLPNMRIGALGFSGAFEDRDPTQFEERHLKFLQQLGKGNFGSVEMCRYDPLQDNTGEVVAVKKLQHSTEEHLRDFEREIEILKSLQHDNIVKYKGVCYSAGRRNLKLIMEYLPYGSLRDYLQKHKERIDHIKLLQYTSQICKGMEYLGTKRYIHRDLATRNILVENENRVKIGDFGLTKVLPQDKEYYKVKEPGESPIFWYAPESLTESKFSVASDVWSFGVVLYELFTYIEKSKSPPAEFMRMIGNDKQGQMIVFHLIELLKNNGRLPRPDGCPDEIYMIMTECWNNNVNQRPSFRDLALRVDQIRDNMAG

Row | Structure (SMILES) | IC50 [1] [nM] | Kd [2] [nM] | Kd [3] [nM] | Kd [4] [nM] | S-Score: S(10) at 10 μM [5]
1 | Cc1cc(Nc2nc(C(F)(F)c3ccc(F)cc3)nc3cc(C4(O)COC4)ccc23)n[nH]1 [Example 3, 3-(2-(difluoro(4-fluorophenyl)methyl)-4-(5-methyl-1H-pyrazol-3-ylamino)quinazolin-7-yl)oxetan-3-ol] | ≤ 100 | ≤ 1 | ≤ 10 | ≤ 10 | D (D>0.5)
2 | Cc1cc(Nc2nc(C(F)(F)c3ccc(F)cc3)nc3cc(-c4ccccc4O)ccc23)n[nH]1 [Example 5, 2-(2-(difluoro(4-fluorophenyl)methyl)-4-(5-methyl-1H-pyrazol-3-ylamino)quinazolin-7-yl)phenol] | 100 to 500 | 1 to 10 | 10 to 100 | 10 to 100 | A (A≦0.3)
3 | Cc1cc(Nc2nc(C(F)(F)c3ccc(F)cc3)nc3cc(-c4cncnc4)ccc23)n[nH]1 [Example 2, 2-(difluoro(4-fluorophenyl)methyl)-N-(5-methyl-1H-pyrazol-3-yl)-7-(pyrimidin-5-yl)quinazolin-4-amine] | ≤ 100 | ≤ 1 | ≤ 10 | ≤ 10 | A (A≦0.3)
4 | Cc1cc(Nc2nc(C(F)(F)c3ccc(F)cc3)nc3cc(C4=CCOCC4)ccc23)n[nH]1 [Example 4, 2-(difluoro(4-fluorophenyl)methyl)-7-(3,6-dihydro-2H-pyran-4-yl)-N-(5-methyl-1H-pyrazol-3-yl)quinazolin-4-amine] | 100 to 500 | 1 to 10 | ≤ 10 | ≤ 10 | A (A≦0.3)
5 | Cc1cc(Nc2nc(C(F)(F)c3ccc(F)cc3)nc3cc(CN4CCOCC4)ccc23)n[nH]1 [Example 8, 2-(difluoro(4-fluorophenyl)methyl)-N-(5-methyl-1H-pyrazol-3-yl)-7-(morpholinomethyl)quinazolin-4-amine] | ≤ 100 | ≤ 1 | ≤ 10 | ≤ 10 | D (D>0.5)
6 | Cc1cc(Nc2nc(C(F)(F)c3ccc(F)cc3)nc3cc(-c4c(C)noc4C)ccc23)n[nH]1 [Example 6, 2-(difluoro(4-fluorophenyl)methyl)-7-(3,5-dimethylisoxazol-4-yl)-N-(5-methyl-1H-pyrazol-3-yl)quinazolin-4-amine] | 100 to 500 | 1 to 10 | ≤ 10 | ≤ 10 | B (0.3≦B≦0.4)
7 | Cc1cc(Nc2nc(C(F)(F)c3ccc(F)cc3)nc3cc(-c4cnn(C)c4)ccc23)n[nH]1 [Example 1, 2-(difluoro(4-fluorophenyl)methyl)-N-(5-methyl-1H-pyrazol-3-yl)-7-(1-methyl-1H-pyrazol-4-yl)quinazolin-4-amine] | ≤ 100 | ≤ 1 | ≤ 10 | ≤ 10 | A (A≦0.3)
8 | Cc1cc(Nc2nc(C(F)(F)c3ccc(F)cc3)nc3cc(N4C[C@H](O)CC4=O)ccc23)n[nH]1 [Example 7, (R)-1-(2-(difluoro(4-fluorophenyl)methyl)-4-(5-methyl-1H-pyrazol-3-ylamino)quinazolin-7-yl)-4-hydroxypyrrolidin-2-one] | 100 to 500 | ≤ 1 | ≤ 10 | ≤ 10 | D (D>0.5)
